From patent publication US8278464B2, “Insecticides” (Syngenta Crop Protection LLC, priority 2006, dated 2012)

Key:
[1] = test system: Spodoptera littoralis (Egyptian Cotton Leafworm); experiment: Activity against Spodoptera littoralis, cotton leaf discs sprayed (Example B1); assay type: in vivo; conditions: foliar, 72 h, L1 larvae, checked 3 days after treatment
Text: Cotton leaf discs are placed on agar in a 24-well microtiter plate and sprayed with test solutions. After drying, the leaf discs are infested with 5 L1 larvae. The samples are checked for mortality, repellent effect, feeding behaviour, and growth regulation 3 days after treatment (DAT).

[2] = test system: Heliothis virescens (Tobacco Budworm); experiment: Activity against Heliothis virescens, eggs on artificial diet (Example B2); assay type: in vivo; conditions: 96 h, eggs 0-24 h old, incubation 4 days
Procedure: Eggs (0-24 h old) are placed in 24-well microtiter plate on artificial diet and treated with test solutions by pipetting. After an incubation period of 4 days, samples are checked for egg mortality, larval mortality, and growth regulation.

[3] = test system: Spodoptera littoralis (Cotton Leafworm); experiment: Systemic insecticide test for Spodoptera littoralis, maize seedlings, 12.5 ppm (Example B9); assay type: in vivo; conditions: 96 h, 12.5 ppm in water, systemic via maize seedlings, larvae incubated four days
Procedure: Four day old maize seedlings (Zea mais, variety Stoneville) are placed individual in vials containing 24 ml water into which the chemical is diluted at 12.5 ppm. Seedlings are allowed to grow for six days. Subsequently leaves are cut and placed in a Petri dish (5 cm diameter), inoculated with twelve to fifteen 1st instar S. littoralis larvae and incubated for four days in a growth chamber (25° C., 50% r.h., 18:6 L:D photo period). Number of alive insects are counted and percentage of dead calculated. Tests were conducted with one replicate.

[4] = test system: Plutella xylostella (Diamond Back Moth); experiment: Activity against Plutella xylostella, artificial diet MTP (Example B3); assay type: in vivo; conditions: 120 h, L2 larvae, incubation 5 days
Procedure: (§1) 24-well microtiter plate (MTP) with artificial diet is treated with test solutions by pipetting. After drying, the MTP's are infested with larvae (L2) (10-15 per well). After an incubation period of 5 days, samples are checked for larval mortality, antifeedant and growth regulation. In this test, compounds listed in the Tables above show good activity. In particular compounds T13.1.2, T15.1.1, T15.1.91, T13.1.1, T9.1.2 (diastereomer A), T9.1.2 (diastereomer B), T16.1.1, T17.1.2 (diastereomer A), T17.1.2 (diastereomer B), T16.1.91, T13.1.92, T13.1.361, T13.1.391, T13.1.91, T13.1.6, T13.1.96, T44.1.2, T13.1.8, T13.1.23, T13.1.93, T13.1.113, T13.1.21, T13.1.111 have an activity of over 80% at 400 ppm.

[5] = test system: Thrips tabaci (Onion Thrips); experiment: Activity against Thrips tabaci, sunflower leaf discs (Example B7); assay type: in vivo; conditions: foliar, 144 h, incubation 6 days
Procedure: Sunflower leaf discs are placed on agar in a 24-well microtiter plate and sprayed with test solutions. After drying, the leaf discs are infested with a thrips population of mixed ages. After an incubation period of 6 days, samples are checked for mortality and special effects (e.g. phytotoxicity).

[6] = test system: Myzus persicae (Green Peach Aphid); experiment: Activity against Myzus persicae, systemic, pea seedlings (Example B6); assay type: in vivo; conditions: 144 h, 6 days after introduction
Text: Roots of pea seedlings, infested with an aphid population of mixed ages, are placed directly in the test solutions. 6 days after introduction, samples are checked for mortality and special effects on the plant.

[7] = test system: Diabrotica balteata (Corn Root Worm); experiment: Activity against Diabrotica balteata, artificial diet MTP (Example B4); assay type: in vivo; conditions: 120 h, L2 larvae, incubation 5 days
Procedure: as §1, with “(6-10” for “(10-15”, “B),” for “B), T16.1.1,”, “T13.1.92,” for “T13.1.92, T13.1.361, T13.1.391,”, “T13.1.23,” for “T13.1.23, T13.1.93,”

[8] = test system: Myzus persicae (Green Peach Aphid); experiment: Activity against Myzus persicae, contact, sunflower leaf discs (Example B5); assay type: in vivo; conditions: foliar, 144 h, 6 DAT
Procedure: Sunflower leaf discs are placed on agar in a 24-well microtiter plate and sprayed with test solutions. After drying, the leaf discs are infested with an aphid population of mixed ages. After an incubation period of 6 DAT, samples are checked for mortality and special effects (e.g. phytotoxicity).

| Structure (SMILES) | melting point [°C] | pest or weed control at 400 ppm [1] [%] | pest or weed control at 400 ppm [2] [%] | pest or weed control at 400 ppm [4] [%] | pest or weed control at 400 ppm [7] [%] | further results |
| --- | --- | --- | --- | --- | --- | --- |
| CCC1(NC(=O)c2cc(Cl)cc(C)c2NC(=O)c2cc(C(F)(F)F)nn2-c2ncccc2Cl)CS(=O)(=O)C1 | 234 to 236 | – | – | – | – | – |
| Cc1cc(C#N)cc(C(=O)NC2(C)C[S+]([O-])C2)c1NC(=O)c1cc(OCC(F)(F)F)nn1-c1ncccc1Cl (stereo not shown) | 223 to 225 | – | – | – | – | – |
| Cc1cc(Cl)cc(C(=O)NC2(C)C[S+]([O-])C2)c1NC(=O)c1cc(OCC(F)(F)F)nn1-c1ncccc1Cl (stereo not shown) | 220 to 222 | – | – | – | – | – |
| Cc1cccc(C(=O)NC2CS(=O)(=O)C2)c1NC(=O)c1cc(C(F)(F)F)nn1-c1ncccc1Cl [T13.1.361] | – | > 80 | > 80 | > 80 | – | pest or weed control at 12.5 ppm [3]: > 80% |
| Cc1cc(Cl)cc(C(=O)NC2C[S+]([O-])C2)c1NC(=O)c1cc(C(F)F)nn1-c1ncccc1Cl (stereo not shown) | 171 to 173 | – | – | – | – | – |
| Cc1cc(Cl)cc(C(=O)NC2(C)CS(=O)(=O)C2)c1NC(=O)c1cc(C(F)F)nn1-c1ncccc1Cl | 170 to 173 | – | – | – | – | – |
| CCC1(NC(=O)c2cc(C#N)cc(C)c2NC(=O)c2cc(C(F)(F)F)nn2-c2ncccc2Cl)CS(=O)(=O)C1 [T13.1.93] | – | > 80 | > 80 | > 80 | – | pest or weed control at 400 ppm [5]: > 80%; pest or weed control at 400 ppm [6]: > 80% |
| Cc1cc(Cl)cc(C(=O)NC2(C)CS(=O)(=O)C2)c1NC(=O)c1cc(Br)nn1-c1ncccc1Cl | 191 to 193 | – | – | – | – | – |
| Cc1cc(C#N)cc(C(=O)NC2C(C)(C)S(=O)(=O)C2(C)C)c1NC(=O)c1cc(C(F)(F)F)nn1-c1ncccc1Cl [T16.1.91] | – | > 80 | > 80 | > 80 | > 80 | pest or weed control at 400 ppm [5]: > 80% |
| Cc1cc(C#N)cc(C(=O)NC2CS(=O)(=O)C2(C)C)c1NC(=O)c1cc(C(F)(F)F)nn1-c1ncccc1Cl (stereo not shown) [T15.1.91] | – | > 80 | > 80 | > 80 | > 80 | pest or weed control at 400 ppm [5]: > 80%; pest or weed control at 400 ppm [8]: > 80% |
| Cc1cc(Cl)cc(C(=O)NC2CS(=O)(=O)C2)c1NC(=O)c1cc(C(F)(F)F)nn1-c1ncccc1Cl [T13.1.1] | – | > 80 | > 80 | > 80 | > 80 | pest or weed control at 12.5 ppm [3]: > 80%; pest or weed control at 400 ppm [5]: > 80%; pest or weed control at 400 ppm [6]: > 80% |
| Cc1cc(Cl)cc(C(=O)NC2CS(=O)(=O)C2(C)C)c1NC(=O)c1cc(C(F)(F)F)nn1-c1ncccc1Cl (stereo not shown) [T15.1.1] | – | > 80 | > 80 | > 80 | > 80 | pest or weed control at 12.5 ppm [3]: > 80% |
| Cc1cc(Cl)cc(C(=O)NC2(C)CN(Cc3ccccc3)C2)c1NC(=O)c1cc(C(F)(F)F)nn1-c1ncccc1Cl [T44.1.2, 2-(3-chloro-pyridin-2-yl)-5-trifluoromethyl-2H-pyrazole-3-carboxylic acid [4-chloro-2-methyl-6-(3-methyl-N-benzylazetidine-3-ylcarbamoyl)-phenyl]-amide] | – | > 80 | > 80 | > 80 | > 80 | pest or weed control at 12.5 ppm [3]: > 80%; pest or weed control at 400 ppm [5]: > 80% |
| Cc1cc(Cl)cc(C(=O)NC2(C)C[S+]([O-])C2)c1NC(=O)c1cc(Br)nn1-c1ncccc1Cl (stereo not shown) | 244 to 247 | – | – | – | – | – |
| Cc1cc(C#N)cc(C(=O)NC2C[S+]([O-])C2)c1NC(=O)c1cc(C(F)F)nn1-c1ncccc1Cl (stereo not shown) | 230 to 233 | – | – | – | – | – |
| Cc1cc(C#N)cc(C(=O)NC2CS(=O)(=O)C2)c1NC(=O)c1cc(C(F)F)nn1-c1ncccc1Cl | 158 to 160 | – | – | – | – | – |

| Structure (SMILES) | melting point [°C] | pest or weed control at 400 ppm [1] [%] | pest or weed control at 400 ppm [2] [%] | pest or weed control at 400 ppm [4] [%] | pest or weed control at 400 ppm [7] [%] | further results |
| --- | --- | --- | --- | --- | --- | --- |
| Cc1cc(C#N)cc(C(=O)NC2(C)C[S+]([O-])C2)c1NC(=O)c1cc(C(F)F)nn1-c1ncccc1Cl (stereo not shown) | 235 to 237 | – | – | – | – | – |
| Cc1cc(C#N)cc(C(=O)NC2(C)C[S+]([O-])C2)c1NC(=O)c1cc(Br)nn1-c1ncccc1Cl (stereo not shown) | 244 to 249 | – | – | – | – | – |
| Cc1cc(C#N)cc(C(=O)NC2CS(=O)(=O)C2)c1NC(=O)c1cc(OCC(F)(F)F)nn1-c1ncccc1Cl [T13.1.111] | – | > 80 | > 80 | > 80 | > 80 | pest or weed control at 400 ppm [5]: > 80% |
| CCC1(NC(=O)c2cc(C#N)cc(C)c2NC(=O)c2cc(OCC(F)(F)F)nn2-c2ncccc2Cl)CS(=O)(=O)C1 [T13.1.113] | – | > 80 | > 80 | > 80 | > 80 | pest or weed control at 12.5 ppm [3]: > 80%; pest or weed control at 400 ppm [5]: > 80%; pest or weed control at 400 ppm [6]: > 80% |
| Cc1cc(C#N)cc(C(=O)NC2(C)CS(=O)(=O)C2)c1NC(=O)c1cc(OCC(F)(F)F)nn1-c1ncccc1Cl | 216 to 219 | – | – | – | – | – |
| CCC1(NC(=O)c2cc(Cl)cc(C)c2NC(=O)c2cc(Br)nn2-c2ncccc2Cl)CS(=O)(=O)C1 [T13.1.8] | – | > 80 | > 80 | > 80 | > 80 | pest or weed control at 12.5 ppm [3]: > 80% |
| Cc1cc(Cl)cc(C(=O)NC2CS(=O)(=O)C2)c1NC(=O)c1cc(C(F)F)nn1-c1ncccc1Cl | 151 to 155 | – | – | – | – | – |
| Cc1cc(Cl)cc(C(=O)NC2C[S+]([O-])C2)c1NC(=O)c1cc(C(F)(F)F)nn1-c1ncccc1Cl (single isomer, unassigned) | 241 to 244 | – | – | – | – | – |
| Cc1cc(Cl)cc(C(=O)NC2(C)CS(=O)(=O)C2)c1NC(=O)c1cc(OCC(F)(F)F)nn1-c1ncccc1Cl | > 250 | – | – | – | – | – |
| Cc1cc(Cl)cc(C(=O)NC2(C)C[S+]([O-])C2)c1NC(=O)c1cc(C(F)F)nn1-c1ncccc1Cl (stereo not shown) | 169 to 173 | – | – | – | – | – |
| Cc1cc(Cl)cc(C(=O)NC2C(C)(C)S(=O)(=O)C2(C)C)c1NC(=O)c1cc(C(F)(F)F)nn1-c1ncccc1Cl [T16.1.1] | – | > 80 | > 80 | > 80 | – | – |
| Cc1cc(C#N)cc(C(=O)NC2(C)CS(=O)(=O)C2)c1NC(=O)c1cc(C(F)F)nn1-c1ncccc1Cl | 238 to 241 | – | – | – | – | – |
| Cc1cc(C#N)cc(C(=O)NC2CS(=O)(=O)C2)c1NC(=O)c1cc(C(F)(F)F)nn1-c1ncccc1Cl [T13.1.91] | – | > 80 | > 80 | > 80 | > 80 | pest or weed control at 12.5 ppm [3]: > 80%; pest or weed control at 400 ppm [5]: > 80%; pest or weed control at 400 ppm [8]: > 80% |
| Cc1cc(Cl)cc(C(=O)NC2CS(=O)(=O)C2)c1NC(=O)c1cc(Br)nn1-c1ncccc1Cl [T13.1.6] | – | > 80 | > 80 | > 80 | > 80 | pest or weed control at 12.5 ppm [3]: > 80%; pest or weed control at 400 ppm [5]: > 80%; pest or weed control at 400 ppm [6]: > 80% |
| CCC1(NC(=O)c2cc(Cl)cc(C)c2NC(=O)c2cc(OCC(F)(F)F)nn2-c2ncccc2Cl)CS(=O)(=O)C1 [T13.1.23] | – | > 80 | > 80 | > 80 | > 80 | pest or weed control at 12.5 ppm [3]: > 80% |
